{"source": "patent US7112564B2", "about": "“Biodegradable glucosaminemuramyl peptides for apoptosis modulation” (Zylacta Corporation, priority 2003, dated 2006)", "system": "A549 cells (human lung cancer)", "assay": "Inhibition of TNF alpha cytotoxicity (LDH release into culture supernatant)", "type": "cell-based", "settings": "ingredient at 1 ug/ml, FIG. 2", "protocol": "A549 cells (human lung cancer) were seeded in six-well plates, and after 24 h (70% confluence) treated with 25 ug/ml cycloheximide (CHX) and either 100 U/ml human TNF (Beoringer) or an agonist monoclonal antibody to FAS (Panerva) in concentration 200 ng/ml. GMDP, and GMHP were added just prior to the cytokine in the concentrations discussed in the figure legends. Twenty hours after the treatment 20 ul of the cultured supernatant was removed and tested for the LDH activity in 96 well plates in triplicate. Samples were assayed on an EL340 Microplate reader (Biotec Instruments, Inc) at 490-nm wavelength.\nThe purpose of this experiment was to show the synergistic effect of NAG and D-glutamine on LDH release. Technically the experiment was similar to example 1. Both ingredients were added in concentration 1 ug/ml. […] Almost 50% inhibition of LDH activity was noticed for NAG+D-glutamine composition. […] The glucosamine muramyl hexapeptide has 3 D-amino acids while GMDP has only one D-isoglutamine.", "data": [{"compound": "NC(=O)CC[C@H](N)C(=O)O", "note": "[L-glutamine]", "values": [{"measurement": "protection of cells from TNF alpha cytotoxicity (LDH release)", "result": "does not protect cells from TNF alpha cytotoxicity"}]}]}
